Tests used:
Format in all cases: in vivo
[1] = system: Alopecurus myosuroides; experiment: Pre-emergence herbicidal effect against ALOMY; conditions: 1280 g/ha, visual score after 3 weeks, 100% = plants have died, 0% = like control plants
Summary of the method: (§1)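 Pre-emergence soil-surface spray, WP/EC formulations in water at 600 to 800 L/ha plus 0.2% wetting agent, sandy loam, greenhouse, visual % damage vs untreated at 3 weeks (100% = plants dead, 0% = like control).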

[2] = system: Digitaria sanguinalis; experiment: Pre-emergence herbicidal effect against DIGSA; conditions: 1280 g/ha, visual score after 3 weeks, 100% = plants have died, 0% = like control plants
Summary of the method: as §1

[3] = system: Echinochloa crus-galli; experiment: Pre-emergence herbicidal effect against ECHCG; conditions: 1280 g/ha, visual score after 3 weeks, 100% = plants have died, 0% = like control plants
Summary of the method: as §1

[4] = system: Lolium rigidum; experiment: Pre-emergence herbicidal effect against LOLRI; conditions: 1280 g/ha, visual score after 3 weeks, 100% = plants have died, 0% = like control plants
Summary of the method: as §1

[5] = system: Poa annua; experiment: Pre-emergence herbicidal effect against POAAN; conditions: 1280 g/ha, visual score after 3 weeks, 100% = plants have died, 0% = like control plants
Summary of the method: as §1

[6] = system: Setaria viridis; experiment: Pre-emergence herbicidal effect against SETVI; conditions: 1280 g/ha, visual score after 3 weeks, 100% = plants have died, 0% = like control plants
Summary of the method: as §1

[7] = system: Abutylon threophrasti; experiment: Pre-emergence herbicidal effect against ABUTH; conditions: 1280 g/ha, visual score after 3 weeks, 100% = plants have died, 0% = like control plants
Excerpt: (§2) 1. Pre-emergence herbicidal effect and crop plant compatibility Seeds of monocotyledonous and dicotyledonous weed plants and crop plants are laid out in sandy loam soil in wood-fibre pots and covered with soil. The compounds of the invention, formulated in the form of wettable powders (WP) or as emulsion concentrates (EC), are then applied to the surface of the covering soil as aqueous suspension or emulsion at a water application rate equating to 600 to 800 L/ha with addition of 0.2% wetting agent. After the treatment, the pots are placed in a greenhouse and kept under good growth conditions for the trial plants. The damage to the test plants is scored visually after a test period of 3 weeks by comparison with untreated controls (herbicidal activity in percent (%): 100% activity=the plants have died, 0% activity=like control plants). [table]

[8] = system: Bassia scoparia; experiment: Pre-emergence herbicidal effect against KCHSC; conditions: 1280 g/ha, visual score after 3 weeks, 100% = plants have died, 0% = like control plants
Excerpt: as §2

[9] = system: Tripleurospermum inodorum; experiment: Pre-emergence herbicidal effect against MATIN; conditions: 1280 g/ha, visual score after 3 weeks, 100% = plants have died, 0% = like control plants
Summary of the method: as §1

[10] = system: Stellaria media; experiment: Pre-emergence herbicidal effect against STEME; conditions: 1280 g/ha, visual score after 3 weeks, 100% = plants have died, 0% = like control plants
Summary of the method: as §1

[11] = system: Veronica persica; experiment: Pre-emergence herbicidal effect against VERPE; conditions: 1280 g/ha, visual score after 3 weeks, 100% = plants have died, 0% = like control plants
Summary of the method: as §1

[12] = system: Alopecurus myosuroides; experiment: Post-emergence herbicidal effect against ALOMY; conditions: 1280 g/ha, visual score after about 3 weeks, 100% = plants have died, 0% = like control plants
Summary of the method: (§3)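 Visual score, % action vs untreated controls (100% = plants dead, 0% = like controls), read ~3 wk after spraying. Greenhouse plants in sandy loam, one-leaf stage, 2–3 wk post-sowing. WP/EC as aqueous spray, 600–800 l/ha, 0.2% wetting agent.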

[13] = system: Digitaria sanguinalis; experiment: Post-emergence herbicidal effect against DIGSA; conditions: 1280 g/ha, visual score after about 3 weeks, 100% = plants have died, 0% = like control plants
Summary of the method: as §3

[14] = system: Echinochloa crus-galli; experiment: Post-emergence herbicidal effect against ECHCG; conditions: 1280 g/ha, visual score after about 3 weeks, 100% = plants have died, 0% = like control plants
Summary of the method: as §3

[15] = system: Lolium rigidum; experiment: Post-emergence herbicidal effect against LOLRI; conditions: 1280 g/ha, visual score after about 3 weeks, 100% = plants have died, 0% = like control plants
Method: [table] 2. Post-emergence herbicidal effect and crop plant compatibility Seeds of monocotyledonous and dicotyledonous weed and crop plants are laid out in sandy loam soil in wood-fibre pots, covered with soil and cultivated in a greenhouse under good growth conditions. 2 to 3 weeks after sowing, the test plants are treated at the one-leaf stage. The compounds of the invention, formulated in the form of wettable powders (WP) or as emulsion concentrates (EC), are then sprayed onto the green parts of the plants as aqueous suspension or emulsion at a water application rate equating to 600 to 800 l/ha with addition of 0.2% wetting agent. After the test plants have been left to stand in the greenhouse under optimal growth conditions for about 3 weeks, the action of the preparations is assessed visually in comparison to untreated controls (herbicidal action in percent (%): 100% activity=the plants have died, 0% activity=like control plants).

[16] = system: Poa annua; experiment: Post-emergence herbicidal effect against POAAN; conditions: 1280 g/ha, visual assessment about 3 weeks after treatment, 100% = plants have died, 0% = like control plants
Summary of the method: as §3

[17] = system: Setaria viridis; experiment: Post-emergence herbicidal effect against SETVI; conditions: 1280 g/ha, visual assessment about 3 weeks after treatment, 100% = plants have died, 0% = like control plants
Summary of the method: as §3

[18] = system: Abutylon threophrasti; experiment: Post-emergence herbicidal effect against ABUTH; conditions: 1280 g/ha, visual assessment about 3 weeks after treatment, 100% = plants have died, 0% = like control plants
Summary of the method: as §3

[19] = system: Bassia scoparia; experiment: Post-emergence herbicidal effect against KCHSC; conditions: 1280 g/ha, visual assessment about 3 weeks after treatment, 100% = plants have died, 0% = like control plants
Summary of the method: as §3

[20] = system: Tripleurospermum inodorum; experiment: Post-emergence herbicidal effect against MATIN; conditions: 1280 g/ha, visual assessment about 3 weeks after treatment, 100% = plants have died, 0% = like control plants
Summary of the method: as §3

[21] = system: Stellaria media; experiment: Post-emergence herbicidal effect against STEME; conditions: 1280 g/ha, visual assessment about 3 weeks after treatment, 100% = plants have died, 0% = like control plants
Summary of the method: as §3

[22] = system: Veronica persica; experiment: Post-emergence herbicidal effect against VERPE; conditions: 1280 g/ha, visual assessment about 3 weeks after treatment, 100% = plants have died, 0% = like control plants
Summary of the method: as §3

[23] = system: Amaranthus retroflexus; experiment: Pre-emergence herbicidal effect against AMARE; conditions: 1280 g/ha, visual score after 3 weeks, 100% = plants have died, 0% = like control plants
Summary of the method: as §1

[24] = system: Amaranthus retroflexus; experiment: Post-emergence herbicidal effect against AMARE; conditions: 1280 g/ha, visual assessment about 3 weeks after treatment, 100% = plants have died, 0% = like control plants
Summary of the method: as §3

Row | Structure (SMILES) | Pre-emergence action against ALOMY [1] [%] | Pre-emergence action against DIGSA [2] [%] | Pre-emergence action against ECHCG [3] [%] | Pre-emergence action against LOLRI [4] [%] | Pre-emergence action against POAAN [5] [%] | Pre-emergence action against SETVI [6] [%] | Pre-emergence action against ABUTH [7] [%] | Pre-emergence action against KCHSC [8] [%] | Pre-emergence action against MATIN [9] [%] | Pre-emergence action against STEME [10] [%] | Pre-emergence action against VERPE [11] [%] | Post-emergence action against ALOMY [12] [%] | Post-emergence action against DIGSA [13] [%] | Post-emergence action against ECHCG [14] [%] | Post-emergence action against LOLRI [15] [%] | Post-emergence action against POAAN [16] [%] | Post-emergence action against SETVI [17] [%] | Post-emergence action against ABUTH [18] [%] | Post-emergence action against KCHSC [19] [%] | Post-emergence action against MATIN [20] [%] | also measured
1 | O=C(O)CSc1nn(-c2ccccc2F)c(-c2ccc(F)c(F)c2)c1Cl [Example I-014] | 100 | 100 | 90 | 100 | 100 | 100 | 100 | 90 | 100 | 100 | 100 | 100 | 100 | 90 | 90 | 100 | 90 | 90 | 100 | 100 | Post-emergence action against STEME [21]: 100%; Post-emergence action against VERPE [22]: 90%
2 | O=C(O)CSc1nn(-c2ccccc2F)c(-c2cncc(F)c2)c1Br [II-005] | 100 | 100 | 100 | 100 | 100 | 100 | 90 | 90 | 100 | 100 | 100 | 100 | 100 | 100 | 90 | 100 | 100 | 90 | 90 | 100 | Pre-emergence action against AMARE [23]: 100%; Post-emergence action against AMARE [24]: 90%; Post-emergence action against STEME [21]: 100%; Post-emergence action against VERPE [22]: 100%

Source: patent US20230126893A1, “[(1,4,5-TRISUBSTITUTED-1H-PYRAZOL-3-YL)SULFANYL]ACETIC ACID DERIVATIVES, SALTS THEREOF, AND USE THEREOF AS ACTIVE HERBICIDAL INGREDIENTS” (BAYER AKTIENGESELLSCHAFT, priority 2020, published 2023)
